Measurements as given in BindingDB's records for doi:10.1080/1475636021000005721 (Universit&Eacute, 2002).

These compounds were tested against Serotonin N-acetyltransferase (Homo sapiens, UniProt Q16613) (assay: AANAT Assay). Details: pH 6.8; 37 °C.
Method: The compounds were evaluated in a human serotonin N-acetyltransferase assay.

Chain of Serotonin N-acetyltransferase (Q16613 whole entry): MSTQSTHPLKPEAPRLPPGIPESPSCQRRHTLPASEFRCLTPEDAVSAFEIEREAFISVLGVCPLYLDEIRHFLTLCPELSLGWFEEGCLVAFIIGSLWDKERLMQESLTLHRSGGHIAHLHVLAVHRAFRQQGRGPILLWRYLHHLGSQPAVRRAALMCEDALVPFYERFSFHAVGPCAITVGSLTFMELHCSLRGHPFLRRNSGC

Row | IC50 [nM] | SMILES
1 | 1430 | O=C(CBr)NCCc1c[nH]c2ccccc12
2 | 40000 | COc1ccc2occ(CCNC(=O)CBr)c2c1 [AANAT Inhibitor, 8c]
3 | 610 | COc1ccc2scc(CCNC(=O)CBr)c2c1 [AANAT Inhibitor, 8d]
4 | 680 | O=C(CBr)NCCc1csc2ccccc12 [AANAT Inhibitor, 8e]
5 | 3780 | O=C(CBr)NCCc1csc2ccc(Br)cc12 [AANAT Inhibitor, 8g]
6 | 390 | O=C(CBr)NCCc1csc2ccc(F)cc12 [AANAT Inhibitor, 8h]
7 | 700 | CCc1ccc2scc(CCNC(=O)CBr)c2c1 [AANAT Inhibitor, 8i]
8 | 180 | O=C(CBr)NCCc1csc2ccc(O)cc12 [AANAT Inhibitor, 12d]
